Experimental data taken from patent publication US20070148124A1, “Cellulose and acrylic based polymers and the use thereof for the treatment of infectious diseases” (priority 2004, published 2007).
Read-outs that look alike come from different tables or passages of the source.

What was measured:
HIV-1IIIB = assay: microbe, parasite or virus in culture; format: cell-based
in vitro [1] = settings: human
HIV-1SKI = assay: CD4-dependent HIV transmission inhibition assay (cell-associated virus, GHOST cells); format: cell-based
in vitro [2] = settings: human; remark: listed apart in the source
HIV-1BaL = assay: Virus attachment assay; format: cell-based; settings: Assay Virus HIV-1BaL
[3] = system: MAGI-R5 or HeLa CD4 LTR β-gal cells
HIV-1JR-CSF = assay: CD4-dependent HIV transmission inhibition assay (cell-associated virus, GHOST cells); format: cell-based
in vitro [4] = settings: human; remark: listed apart in the source
[5] = system: CCR5 tropic (JRCSF) strain of HIV-1; assay: HIV-1 infection and replication in PBMCs, RT activity; format: cell-based; settings: seven days, CCR5 virus
[6] = system: dual tropic (BR/92/014) strain of HIV-1; assay: as above; format: cell-based; settings: seven days, dual tropic virus
[7] = system: CXCR4 tropic (CMU06) strain of HIV-1; assay: as above; format: cell-based; settings: seven days, CXCR4 virus
[8] = cited from earlier work
[9] = Human immunodeficiency virus 1, CXCR4 Virus HIV-1SKI, cell-associated
[10] = Human immunodeficiency virus 1, Assay Virus HIV-1JR-CSF
[11] = CXCR4 Virus HIV-1SKI, cell-associated

For `c1cc(CN2CCCNCCNCCCNCC2)ccc1CN1CCCNCCNCCCNCC1` [AMD 3100], the IC50 (HIV-1IIIB; Human immunodeficiency virus 1) was 1 nM, the IC90 (HIV-1IIIB; Human immunodeficiency virus 1) was 8 nM and the CC50 (in vitro [1]) was greater than 10 µM. It also gave an IC50 (HIV-1SKI; Human immunodeficiency virus 1, Pre-incubation pH: Standard Assay) of 10 nM, an IC50 (HIV-1SKI; Human immunodeficiency virus 1, pH 4, Pre-incubation pH 4.0) of 1 nM and an IC50 (HIV-1SKI; Human immunodeficiency virus 1, pH 5.85, Pre-incubation pH 5.85) of 6 nM. The IC50 (HIV-1SKI; Human immunodeficiency virus 1, pH 6.5, Pre-incubation pH 6.5) was 80 nM, the IC50 (HIV-1SKI; [9]) was 5 nM and the IC90 (HIV-1SKI; [9]) was 60 nM. The CC50 (in vitro [2]) was greater than 10 µM, the IC50 (HIV-1BaL; Human immunodeficiency virus 1) was 3.79 µM and the IC90 (HIV-1BaL; Human immunodeficiency virus 1) was greater than 10000 nM. For the same compound, the CC50 ([3]; human) was greater than 10 µM, the IC50 (HIV-1JR-CSF; [10]) was greater than 10000 nM and the IC90 (HIV-1JR-CSF; [10]) was greater than 10000 nM. The CC50 at 4 h (in vitro [4]) was greater than 10 µM, the CC50 at 4 h (in vitro [4]; pH 4) was 4.03 µM and the CC50 at 4 h (in vitro [4]; pH 5.85) was greater than 10 µM. For the same compound, the CC50 at 4 h (in vitro [4]; pH 6.5) was greater than 10 µM.

Compound `Cc1cn([C@H]2C[C@H](N=[N+]=[N-])[C@@H](CO)O2)c(=O)[nH]c1=O` [AZT] has an IC50 [5] of 1.48 nM, an IC50 [6] of 0.27 nM and an IC50 [7] of less than 0.1 nM.

In the case of `Cc1ccc(-c2ccc3c(c2)C=C(C(=O)Nc2ccc(C[N+](C)(C)C4CCOCC4)cc2)CCC3)cc1` [TAK 779], the CC50 (HeLa CD4 LTR β-gal cells) is reported as greater than 200 nM, the IC50 (HIV-1IIIB; Assay Virus HIV-1IIIB, read-out: IC50) is reported as greater than 200 nM and the IC90 (HIV-1IIIB; Assay Virus HIV-1IIIB, read-out: IC90) is reported as greater than 200 nM. The IC50 (HIV-1SKI; [11]) was greater than 10 nM, the IC90 (HIV-1SKI; [11]) was greater than 10 nM and the IC50 (HIV-1BaL) was less than 2e-06 µM. The IC90 (HIV-1BaL) was 0.04 nM, the CC50 [3] was greater than 0.2 µM and the IC50 (HIV-1JR-CSF; Assay Virus HIV-1JR-CSF) was 0.002 nM. The IC90 (HIV-1JR-CSF; Assay Virus HIV-1JR-CSF) was 0.55 nM and the CC50 (GHOST cells) was greater than 10 nM.

For D-mallic acid, L-mallic acid, the “pKa Values (first value)” value ([8]; room temperature) is listed as 3.4 and the “pKa Values (second value)” value ([8]; room temperature) is listed as 5.2.

“hydroxypropyl methylcellulose trimellitate [HPMCT]” gave a CC50 (GHOST cells; pH 4) of 0.38%, a CC50 (GHOST cells; pH 5.85) of 0.38% and a CC50 (GHOST cells; pH 6.5) of 0.39%.

In the case of phthalate, the “pKa of the second (remaining dissociable) carboxylic acid group” value ([8]; moiety on the cellulose backbone) is listed as 5.28.
